Holding throughout (format): cell-based
Test [1] concerns Staphylococcus aureus ATCC 29213 (MSSA). The test is described as follows: Broth microdilution MIC, S. aureus ATCC 29213 (MSSA). Conditions: broth microdilution, 37° C., 20 hours, read-out: MIC S. aureus ATCC 29213 (MSSA). In outline: (§1)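 Broth microdilution in strain-specific test medium with ~5.0×10^5 cfu/ml inoculum, 1% DMSO and two-fold compound dilutions from 64 to 0.0625 μg/ml. Plates were held 20 hours at 37° C in ambient air. S. pneumoniae colonies were grown beforehand on blood agar in 5% CO2.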
(In general: Broth dilution looks for growth in wells or tubes with falling amounts of substance.)

Test [2] deals with Streptococcus pneumoniae ATCC 49619. The test is described as follows: Broth microdilution MIC, S. pneumoniae ATCC 49619. Conditions: ATCC49619, broth microdilution, 37° C., 20 hours, read-out: MIC S. pneumoniae ATCC 49619. The method, boiled down: as §1
Test [3] deals with Enterococcus faecalis ATCC 29212. The test is described as follows: Broth microdilution MIC, E. faecalis ATCC 29212. To be noted: ATCC29212, broth microdilution, 37° C., 20 hours, read-out: MIC E. faecalis ATCC 29212. In outline:
as §1

Test [4] concerns Staphylococcus aureus NRS384 (MRSA). In words: Broth microdilution MIC, S. aureus NRS384 (MRSA). To be noted: Staphylococcus aureus, broth microdilution, 37° C., 20 hours, read-out: MIC NRS 384 (MRSA). The method, boiled down: as §1
The test system of test [5] is Escherichia coli ATCC 25922. In words: Broth microdilution MIC, E. coli ATCC 25922 (MHIIB w & w/o 4 mM EDTA). Conditions: broth microdilution, 37° C., 20 hours; for MIC: Escherichia coli, ATCC25922, without EDTA, read-out: MIC E. coli ATCC 25922; for MIC E. coli ATCC 25922 + 4 mM EDTA: with 4 mM EDTA. The method, boiled down: as §1
The subject of test [6] is Bacillus subtilis ATCC 6633. In words: Broth microdilution MIC, B. subtilis ATCC 6633. Conditions: ATCC6633, broth microdilution, 37° C., 20 hours, read-out: MIC B. subtilis ATCC 6633. The method, boiled down: as §1
Test [7] concerns Enterococcus faecium ATCC 700221 (VRE). In words: Broth microdilution MIC, E. faecium ATCC 700221 (VRE). Conditions: Enterococcus faecium; broth microdilution, 37° C., 20 hours; read-out: MIC E. faecium ATCC 700221 (VRE). In outline: as §1

Converted amounts (≈) assume the structure as drawn. Read-outs that look alike come from different tables or passages of the source.

As a reminder, the MIC is the least concentration at which growth counts as inhibited.

For `O=c1[nH]c(NCc2ccc(Cl)c(Cl)c2)nc2c(Cl)nn(CCOCCO)c12` [Compound 303, 3-Chloro-5-[(3,4-dichlorophenyl)methylamino]-1-[2-(2-hydroxyethoxy)ethyl]-6H-pyrazolo[4,3-d]pyrimidin-7-one], the MIC in test [1] was 2 µg/mL (≈ 4.62 µM); in test [2] it was 2 µg/mL (≈ 4.62 µM); in test [3], 2 µg/mL (≈ 4.62 µM); in test [4] (S. aureus NRS 384), 2 µg/mL (≈ 4.62 µM); in test [5] it was greater than 64 µg/mL; in test [6], 0.5 µg/mL (≈ 1.16 µM). Besides, the MIC in test [7] came out at 1 µg/mL (≈ 2.31 µM). Moreover, the “MIC E. coli ATCC 25922 + 4 mM EDTA” value in test [5] is greater than 64 µg/mL.

Consider `O=c1[nH]c(NCc2ccc(Cl)c(Cl)c2)nc2cnn(CC(CO)N3CCOCC3)c12` (stereo not shown) [Compound 288, 5-[(3,4-dichlorophenyl)methylamino]-1-(3-hydroxy-2-morpholino-propyl)-6H-pyrazolo[4,3-d]pyrimidin-7-one], for which the MIC in test [1] is 32 µg/mL (≈ 70.6 µM); in test [2], 16 µg/mL (≈ 35.3 µM); in test [3], 32 µg/mL (≈ 70.6 µM); in test [4], 32 µg/mL (≈ 70.6 µM); in test [5], greater than 64 µg/mL; in test [6], 8 µg/mL (≈ 17.6 µM). Besides, the MIC in test [7] amounted to 16 µg/mL (≈ 35.3 µM). Moreover, the “MIC E. coli ATCC 25922 + 4 mM EDTA” value in test [5] was greater than 64 µg/mL.

As to `COC(=O)CCn1cc2nc(NCc3ccc(Cl)c(Cl)c3)[nH]c(=O)c2n1` [Compound 232, Methyl 3-(5-((3,4-dichlorobenzyl)amino)-7-oxo-6,7-dihydro-2H-pyrazolo[4,3-d]pyrimidin-2-yl)propanoate], the MIC in test [1] is greater than 64 µg/mL; in test [2], 16 µg/mL (≈ 40.4 µM); in test [3], greater than 64 µg/mL; in test [4] it was 32 µg/mL (≈ 80.8 µM); in test [5], greater than 64 µg/mL; in test [6], 16 µg/mL (≈ 40.4 µM). Besides, the MIC in test [7] was found to be 16 µg/mL (≈ 40.4 µM). Further, the “MIC E. coli ATCC 25922 + 4 mM EDTA” value in test [5] was greater than 64 µg/mL.

As to `Cl.Cl.O=c1[nH]c(NCc2ccc(Cl)c(Cl)c2)nc2cnn(C3CCN(CC4CCCNC4)CC3)c12` (stereo not shown) [Compound 251, 5-((3,4-dichlorobenzyl)amino)-1-(1-(piperidin-3-ylmethyl)piperidin-4-yl)-1H-pyrazolo[4,3-d]pyrimidin-7(6H)-one dihydrochloride], the MIC in test [1] is 16 µg/mL; in test [2], 8 µg/mL; in test [3], 16 µg/mL; in test [4], 16 µg/mL; in test [5] it was greater than 64 µg/mL; in test [6], 4 µg/mL. Moreover, the MIC in test [7] was 16 µg/mL. Moreover, the “MIC E. coli ATCC 25922 + 4 mM EDTA” value in test [5] was 64 µg/mL.

Turning to `O=c1[nH]c(NCc2ccc(Cl)c(Cl)c2)nc2cnn(C(CO)CO)c12` [Compound 107, 5-((3,4-Dichlorobenzyl)amino)-1-(1,3-dihydroxypropan-2-yl)-1H-pyrazolo[4,3-d]pyrimidin-7(6H)-one], the MIC in test [1] is greater than 64 µg/mL; in test [2], 16 µg/mL (≈ 41.6 µM); in test [3], greater than 64 µg/mL; in test [4], greater than 64 µg/mL; in test [5] it was greater than 64 µg/mL; in test [6], 32 µg/mL (≈ 83.3 µM). For the same molecule, in test [7], the MIC was greater than 64 µg/mL. The “MIC E. coli ATCC 25922 + 4 mM EDTA” value in test [5] was greater than 64 µg/mL.

As to `Cn1ncc2nc(NCc3ccncc3)[nH]c(=O)c21` [Compound 6, 1-Methyl-5-((pyridin-4-ylmethyl)amino)-1H-pyrazolo[4,3-d]pyrimidin-7(6H)-one], the MIC in test [1], in test [2], in test [3], in test [4], in test [5] and in test [6] was greater than 64 µg/mL throughout. For the same molecule, the MIC in test [7] was greater than 64 µg/mL. Also, the “MIC E. coli ATCC 25922 + 4 mM EDTA” value in test [5] was greater than 64 µg/mL.

As for `CP(C)(=O)CCCCn1ncc2nc(NCc3ccc(Cl)c(Cl)c3)[nH]c(=O)c21` [Compound 146, 5-((3,4-Dichlorobenzyl)amino)-1-(4-(dimethylphosphoryl)butyl)-1H-pyrazolo[4,3-d]pyrimidin-7(6H)-one], the MIC in test [1] is greater than 64 µg/mL; in test [2], 32 µg/mL (≈ 72.4 µM); in test [3], 64 µg/mL (≈ 145 µM); in test [4], greater than 64 µg/mL; in test [5] it was greater than 64 µg/mL; in test [6], 32 µg/mL (≈ 72.4 µM). For the same molecule, the MIC in test [7] stood at 32 µg/mL (≈ 72.4 µM). For the same molecule, the “MIC E. coli ATCC 25922 + 4 mM EDTA” value in test [5] is greater than 64 µg/mL.

As to `O=C(NCCn1ncc2nc(NCc3ccc(Cl)c(Cl)c3)[nH]c(=O)c21)c1cc(Cl)nnc1O` [Compound 83, 6-chloro-N-(2-(5-((3,4-dichlorobenzyl)amino)-7-oxo-6,7-dihydro-1H-pyrazolo[4,3-d]pyrimidin-1-yl)ethyl)-3-hydroxypyridazine-4-carboxamide], the MIC was greater than 64 µg/mL in test [1]; 8 µg/mL (≈ 15.7 µM) in test [2]; greater than 64 µg/mL in test [3]; greater than 64 µg/mL in test [4]; greater than 64 µg/mL in test [5]; 64 µg/mL (≈ 126 µM) in test [6]. In addition, the MIC in test [7] is greater than 64 µg/mL. For the same molecule, the “MIC E. coli ATCC 25922 + 4 mM EDTA” value in test [5] was greater than 64 µg/mL.

As to `Cl.Cl.O=c1[nH]c(NCc2ccc(Cl)c(Cl)c2)nc2cnn(C3CCN(CC4CCCCN4)CC3)c12` (stereo not shown) [Compound 249, 5-((3,4-dichlorobenzyl)amino)-1-(1-(piperidin-2-ylmethyl)piperidin-4-yl)-1H-pyrazolo[4,3-d]pyrimidin-7(6H)-one dihydrochloride], the MIC was 16 µg/mL in test [1]; 4 µg/mL in test [2]; 16 µg/mL in test [3]; 16 µg/mL in test [4]; greater than 64 µg/mL in test [5]; 4 µg/mL in test [6]. In test [7], the MIC is 8 µg/mL. In test [5], the “MIC E. coli ATCC 25922 + 4 mM EDTA” value is 64 µg/mL.

As for `Cl.O=C(c1cccnc1)N1CCC(n2ncc3nc(NCc4ccc(Cl)c(Cl)c4)[nH]c(=O)c32)CC1` [Compound 256, 5-((3,4-Dichlorobenzyl)amino)-1-(1-nicotinoylpiperidin-4-yl)-1H-pyrazolo[4,3-d]pyrimidin-7(6H)-one hydrochloride], the MIC is 8 µg/mL in test [1]; 4 µg/mL in test [2]; 4 µg/mL in test [3]; 4 µg/mL in test [4]; greater than 64 µg/mL in test [5]; 2 µg/mL in test [6]. Besides, the MIC in test [7] was found to be 2 µg/mL. The “MIC E. coli ATCC 25922 + 4 mM EDTA” value in test [5] is greater than 64 µg/mL.

As for `[2H]C([2H])(Nc1nc2cnn(CCOCCO)c2c(=O)[nH]1)c1ccc(Cl)c(Cl)c1` [Compound 291, 5-[[dideuterio-(3,4-dichlorophenyl)methyl]amino]-1-[2-(2-hydroxyethoxy)ethyl]-6H-pyrazolo[4,3-d]pyrimidin-7-one], the MIC in test [1] was 16 µg/mL (≈ 40 µM); in test [2], 8 µg/mL (≈ 20 µM); in test [3], 16 µg/mL (≈ 40 µM); in test [4], 16 µg/mL (≈ 40 µM); in test [5] it was greater than 64 µg/mL; in test [6] it was 4 µg/mL (≈ 9.99 µM). Also, the MIC in test [7] is 4 µg/mL (≈ 9.99 µM). For the same molecule, in test [5], the “MIC E. coli ATCC 25922 + 4 mM EDTA” value was greater than 64 µg/mL.

Regarding `O=c1[nH]c(NCc2ccc(Cl)c(Cl)c2)nc2cnn(CCN3CCS(=O)(=O)CC3)c12` [Compound 59, 5-((3,4-Dichlorobenzyl)amino)-1-(2-(1,1-dioxidothiomorpholino)ethyl)-1H-pyrazolo[4,3-d]pyrimidin-7(6H)-one], the MIC is 8 µg/mL (≈ 17 µM) in test [1]; 4 µg/mL (≈ 8.49 µM) in test [2]; 8 µg/mL (≈ 17 µM) in test [3]; 8 µg/mL (≈ 17 µM) in test [4]; greater than 64 µg/mL in test [5]; 4 µg/mL (≈ 8.49 µM) in test [6]. Besides, in test [7], the MIC worked out at 2 µg/mL (≈ 4.24 µM). Besides, in test [5], the “MIC E. coli ATCC 25922 + 4 mM EDTA” value was greater than 64 µg/mL.

`Cl.O=c1[nH]c(NCc2ccc(Cl)c(Cl)c2)nc2cnn(CCNC3=NCCN3)c12` [Compound 295, 5-((3,4-Dichlorobenzyl)amino)-1-(2-((4,5-dihydro-1H-imidazol-2-yl)amino)ethyl)-1H-pyrazolo[4,3-d]pyrimidin-7(6H)-one hydrochloride]: the MIC in test [1] was greater than 64 µg/mL; in test [2] it was 32 µg/mL; in test [3] it was 64 µg/mL; in test [4], 64 µg/mL; in test [5], greater than 64 µg/mL; in test [6], 32 µg/mL. In addition, the MIC in test [7] amounted to 64 µg/mL. The “MIC E. coli ATCC 25922 + 4 mM EDTA” value in test [5] is 64 µg/mL.

`O=c1[nH]c(NCc2ccc(Cl)c(Cl)c2)nc2cnn(CCS(=O)(=O)CCO)c12` [Compound 164, 5-((3,4-dichlorobenzyl)amino)-1-(2-((2-hydroxyethyl)sulfonyl)ethyl)-1H-pyrazolo[4,3-d]pyrimidin-7(6H)-one]: the MIC was 32 µg/mL (≈ 71.7 µM) in test [1]; 4 µg/mL (≈ 8.96 µM) in test [2]; 32 µg/mL (≈ 71.7 µM) in test [3]; 64 µg/mL (≈ 143 µM) in test [4]; greater than 64 µg/mL in test [5]; 16 µg/mL (≈ 35.8 µM) in test [6]. The MIC in test [7] turned out to be 16 µg/mL (≈ 35.8 µM). The “MIC E. coli ATCC 25922 + 4 mM EDTA” value in test [5] is greater than 64 µg/mL.

The record behind these values is US10723741B1, “DNA polymerase IIIC inhibitors and use thereof” (Acurx Pharmaceuticals, LLC, priority 2018, dated 2020).
